Structures can show the parent of a compound that is named as a salt.
Columns and labels:
[1] = biological target: FGFR4 (GST-FGFR4(388-802)) (Homo sapiens (Human), UniProt P22455); experiment: In-vitro biochemical kinase assay for FGFR4 (Caliper microfluidic mobility shift); settings: read-out: Biochemical FGFR4 IC50
Tel-FGFR4 = Tel-FGFR4 (Homo sapiens (Human), UniProt P22455); experiment: In vitro cellular kinase assay for FGFR4 (BaF3-Tel-FGFR4 cells, MSD capture ELISA of tyrosine phosphorylation); format: cell-based; settings: BaF3-Tel-FGFR4 cells, 1 hour incubation; read-out: Cellular BaF3 FGFR4 IC50
[2] = tested on: HuH-7 hepatocellular carcinoma cells; experiment: CellTiter Glo (CTG) Assay; settings: Homo sapiens, Huh-7, 72 h, read-out: HUH7 proliferation (nM) CTG
[3] = tested on: HuH-7 hepatocellular carcinoma cells; experiment: Methylene Blue Staining Proliferation Assay (MBS); settings: Homo sapiens, Huh-7, 72 h, read-out: HUH7 proliferation (nM) MBS
FGFR1 (407-822) = FGFR1 (407-822) (Homo sapiens (Human), UniProt P11362); experiment: In vitro biochemical assay for FGFR1
FGFR2 (406-821) = FGFR2 (406-821) (Homo sapiens (Human), UniProt P21802); experiment: In vitro biochemical assay for FGFR2
FGFR3 (411-806) = FGFR3 (411-806) (Homo sapiens (Human), UniProt P22607); experiment: In vitro biochemical assay for FGFR3
FGFR3 (411-806), sequence (P22607 411-806): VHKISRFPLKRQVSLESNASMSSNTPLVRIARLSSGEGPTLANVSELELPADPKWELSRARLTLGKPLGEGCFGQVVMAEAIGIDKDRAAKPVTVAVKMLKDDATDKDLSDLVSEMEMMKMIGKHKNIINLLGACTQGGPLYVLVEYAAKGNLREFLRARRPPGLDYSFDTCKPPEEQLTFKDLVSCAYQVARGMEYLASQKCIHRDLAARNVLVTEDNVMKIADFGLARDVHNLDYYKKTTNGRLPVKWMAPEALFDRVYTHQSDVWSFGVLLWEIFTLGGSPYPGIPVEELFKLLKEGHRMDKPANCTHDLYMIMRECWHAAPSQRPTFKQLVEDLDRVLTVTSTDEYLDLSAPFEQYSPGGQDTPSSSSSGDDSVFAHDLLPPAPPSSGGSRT

Tel-FGFR4, sequence (P22455 other isoform, or with tags, fused parts or gaps): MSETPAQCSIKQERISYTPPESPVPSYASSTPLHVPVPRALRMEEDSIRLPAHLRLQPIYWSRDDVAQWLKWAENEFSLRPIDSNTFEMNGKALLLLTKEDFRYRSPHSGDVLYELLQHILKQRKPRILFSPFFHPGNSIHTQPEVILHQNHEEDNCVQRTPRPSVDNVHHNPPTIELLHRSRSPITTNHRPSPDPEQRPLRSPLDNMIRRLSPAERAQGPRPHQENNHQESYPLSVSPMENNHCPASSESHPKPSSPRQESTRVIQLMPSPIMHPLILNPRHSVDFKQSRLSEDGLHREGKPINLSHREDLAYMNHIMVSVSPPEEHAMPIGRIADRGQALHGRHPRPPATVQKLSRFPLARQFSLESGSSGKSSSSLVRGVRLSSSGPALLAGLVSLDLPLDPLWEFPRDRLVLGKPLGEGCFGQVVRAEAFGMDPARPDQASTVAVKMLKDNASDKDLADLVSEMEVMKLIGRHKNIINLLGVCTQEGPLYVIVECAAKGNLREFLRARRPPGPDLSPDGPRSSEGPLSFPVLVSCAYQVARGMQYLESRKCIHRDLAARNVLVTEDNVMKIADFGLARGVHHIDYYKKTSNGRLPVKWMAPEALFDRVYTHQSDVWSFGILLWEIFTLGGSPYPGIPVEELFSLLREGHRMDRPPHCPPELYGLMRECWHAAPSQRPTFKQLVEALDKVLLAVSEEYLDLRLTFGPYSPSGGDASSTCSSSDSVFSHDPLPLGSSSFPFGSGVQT
FGFR2 (406-821), sequence (P21802 406-821): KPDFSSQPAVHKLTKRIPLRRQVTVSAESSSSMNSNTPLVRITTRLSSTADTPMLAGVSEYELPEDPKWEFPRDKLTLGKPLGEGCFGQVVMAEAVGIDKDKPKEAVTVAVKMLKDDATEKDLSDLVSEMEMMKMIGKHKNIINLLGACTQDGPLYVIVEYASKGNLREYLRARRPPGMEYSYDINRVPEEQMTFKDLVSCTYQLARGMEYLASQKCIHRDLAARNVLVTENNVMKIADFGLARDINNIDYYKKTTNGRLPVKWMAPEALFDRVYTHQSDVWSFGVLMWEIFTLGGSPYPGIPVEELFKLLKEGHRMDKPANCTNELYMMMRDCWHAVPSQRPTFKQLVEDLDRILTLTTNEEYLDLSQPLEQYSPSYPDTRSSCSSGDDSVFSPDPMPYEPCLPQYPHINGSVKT
FGFR4 (GST-FGFR4(388-802)), sequence (P22455 388-802): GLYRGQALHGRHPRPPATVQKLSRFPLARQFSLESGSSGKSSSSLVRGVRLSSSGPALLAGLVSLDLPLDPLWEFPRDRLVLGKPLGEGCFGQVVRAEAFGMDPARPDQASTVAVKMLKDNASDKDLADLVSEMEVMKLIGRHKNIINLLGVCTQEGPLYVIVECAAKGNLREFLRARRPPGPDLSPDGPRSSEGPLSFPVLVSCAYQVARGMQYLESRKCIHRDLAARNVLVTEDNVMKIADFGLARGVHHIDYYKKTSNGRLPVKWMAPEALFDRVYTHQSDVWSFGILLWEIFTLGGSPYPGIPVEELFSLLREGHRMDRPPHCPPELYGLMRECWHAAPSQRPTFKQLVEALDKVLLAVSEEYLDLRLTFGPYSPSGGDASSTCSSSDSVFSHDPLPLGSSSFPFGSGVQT
FGFR1 (407-822), sequence (P11362 407-822): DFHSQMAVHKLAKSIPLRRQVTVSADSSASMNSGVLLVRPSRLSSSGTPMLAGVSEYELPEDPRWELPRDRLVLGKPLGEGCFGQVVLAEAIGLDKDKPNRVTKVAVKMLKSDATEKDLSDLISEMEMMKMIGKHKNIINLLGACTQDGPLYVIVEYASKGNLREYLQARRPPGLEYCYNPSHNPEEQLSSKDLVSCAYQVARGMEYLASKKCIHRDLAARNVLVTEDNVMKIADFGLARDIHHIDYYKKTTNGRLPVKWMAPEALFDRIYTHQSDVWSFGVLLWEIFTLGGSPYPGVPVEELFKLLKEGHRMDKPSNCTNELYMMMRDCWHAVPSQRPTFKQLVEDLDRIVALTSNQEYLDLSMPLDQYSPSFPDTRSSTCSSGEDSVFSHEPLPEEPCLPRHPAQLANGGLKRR

SMILES | IC50 [1] [nM] | IC50 (Tel-FGFR4) [nM] | IC50 [2] [nM] | IC50 [3] [nM] | IC50 (FGFR1 (407-822)) [nM] | IC50 (FGFR2 (406-821)) [nM] | IC50 (FGFR3 (411-806)) [nM]
COC[C@@H](C)Oc1cc(NC(=O)N2CCCc3cc(CN4C(=O)OC[C@@H]4C)c(C=O)nc32)ncc1C#N [Example 115, N-(5-cyano-4-(((R)-1-methoxypropan-2-yl)oxy)pyridin-2-yl)-7-formyl-6-(((S)-4-methyl-2-oxooxazolidin-3-yl)methyl)-3,4-dihydro-1,8-naphthyridine-1(2H)-carboxamide] | 0.2 | 3.9 | 17.5 | 29 |  |  | 
COC[C@@H](C)Oc1cc(NC(=O)N2CCCc3cc(CN4CCN(C)CC4=O)c(C=O)nc32)ncc1C#N [Example 205, (R)-N-(5-cyano-4-((1-methoxypropan-2-yl)oxy)pyridin-2-yl)-7-formyl-6-((4-methyl-2-oxopiperazin-1-yl)methyl)-3,4-dihydro-1,8-naphthyridine-1(2H)-carboxamide] |  |  |  | 14 | > 10000 | > 10000 | > 10000
O=Cc1ccc2c(n1)N(C(=O)Nc1ccc(Cl)cn1)CCC2 [Example 4, N-(5-chloropyridin-2-yl)-7-formyl-3,4-dihydro-1,8-naphthyridine-1(2H)-carboxamide] |  |  |  | > 3000 |  |  | 
CC(C)Oc1cc(NC(=O)N2CCCc3cc(CN(C)C(=O)CO)c(C=O)nc32)ncc1C#N [Example 141, N-(5-cyano-4-isopropoxypyridin-2-yl)-7-formyl-6-((2-hydroxy-N-methylacetamido)methyl)-3,4-dihydro-1,8-naphthyridine-1(2H)-carboxamide] |  | 3.9 | 36 | 43 | > 10000 | > 10000 | > 10000
COCCNc1cc(NC(=O)N2CCCc3cc(CN4CCN(C)CC4=O)c(C=O)nc32)ncc1C#N [Example 83, N-(5-cyano-4-((2-methoxyethyl)amino)pyridin-2-yl)-7-formyl-6-((4-methyl-2-oxopiperazin-1-yl)methyl)-3,4-dihydro-1,8-naphthyridine-1(2H)-carboxamide] |  |  | 60.9 | 12 |  |  | 
CN1CCN(Cc2cc3c(nc2C=O)N(C(=O)Nc2cc(NCCO)c(C#N)cn2)CCC3)C(=O)C1 [Example 197, N-(5-cyano-4-((2-hydroxyethyl)amino)pyridin-2-yl)-7-formyl-6-((4-methyl-2-oxopiperazin-1-yl)methyl)-3,4-dihydro-1,8-naphthyridine-1(2H)-carboxamide] | 1.2 | 19.1 | 146 |  | > 10000 | > 10000 | > 10000
COCCNc1cc(NC(=O)N2CCCc3cc(CN(CCN(C)C)C(C)=O)c(C=O)nc32)ncc1C#N [Example 143, N-(5-cyano-4-((2-methoxyethyl)amino)pyridin-2-yl)-6-((N-(2-(dimethylamino)ethyl)acetamido)methyl)-7-formyl-3,4-dihydro-1,8-naphthyridine-1(2H)-carboxamide] | 2 | 16.7 | 171 | 104 | > 10000 | > 10000 | > 10000
COCCNc1cc(NC(=O)N2CCCc3cc(-c4cnn(C)c4)c(C=O)nc32)ncc1C#N [Example 251, N-(5-cyano-4-((2-methoxyethyl)amino)pyridin-2-yl)-7-formyl-6-(1-methyl-1H-pyrazol-4-yl)-3,4-dihydro-1,8-naphthyridine-1(2H)-carboxamide] |  | 12.9 | 1340 | 264 |  |  | 
CN1CCOC(CNc2cc(NC(=O)N3CCCc4cc(C(F)F)c(C=O)nc43)ncc2C#N)C1 (racemic) [Example 161, N-(5-cyano-4-(((4-methylmorpholin-2-yl)methyl)amino)pyridin-2-yl)-6-(difluoromethyl)-7-formyl-3,4-dihydro-1,8-naphthyridine-1(2H)-carboxamide] | 2.5 | 17.3 | 200 | 126 | > 10000 | > 10000 | > 10000
COCCNc1cc(NC(=O)N2CCCc3cc(CN4CCNCC4=O)c(C=O)nc32)ncc1C#N [Example 110, N-(5-cyano-4-((2-methoxyethyl)amino)pyridin-2-yl)-7-formyl-6-((2-oxopiperazin-1-yl)methyl)-3,4-dihydro-1,8-naphthyridine-1(2H)-carboxamide hydrochloride] | 1.4 | 8.6 | 59.7 | 46 | > 10000 | > 10000 | > 10000
CC(C)n1cnc2cnc(NC(=O)N3CCCc4cc(CN5CCN(C)CC5=O)c(C=O)nc43)cc21 [Example 216, 7-formyl-N-(1-isopropyl-1H-imidazo[4,5-c]pyridin-6-yl)-6-((4-methyl-2-oxopiperazin-1-yl)methyl)-3,4-dihydro-1,8-naphthyridine-1(2H)-carboxamide] |  |  | > 3000 | > 1000 | > 10000 | > 10000 | > 10000
COCCNc1cc(NC(=O)N2CCCc3cc(CO)c(C=O)nc32)ncc1C(F)(F)F [Example 84, 7-formyl-6-(hydroxymethyl)-N-(4-((2-methoxyethyl)amino)-5-(trifluoromethyl)pyridin-2-yl)-3,4-dihydro-1,8-naphthyridine-1(2H)-carboxamide] | 21 | 33.5 | 944 | 929 | > 10000 | > 10000 | > 10000
CN1CCC(COc2cc(NC(=O)N3CCCc4cc(CO)c(C=O)nc43)ncc2C#N)CC1 [Example 78, N-(5-cyano-4-((1-methylpiperidin-4-yl)methoxy)pyridin-2-yl)-7-formyl-6-(hydroxymethyl)-3,4-dihydro-1,8-naphthyridine-1(2H)-carboxamide] | 20 | 17 |  | 279 | > 10000 | > 10000 | > 10000
N#Cc1cnc(NC(=O)N2CCCc3cc(CO)c(C=O)nc32)cc1OC1CN2CCC1CC2 (racemic) [Example 82, N-(5-cyano-4-(quinuclidin-3-yloxy)pyridin-2-yl)-7-formyl-6-(hydroxymethyl)-3,4-dihydro-1,8-naphthyridine-1(2H)-carboxamide] | 56 | 83.5 |  | 2010 | > 10000 | > 10000 | > 10000
CC(C)Oc1cc(NC(=O)N2CCCc3cc(C4CCNCC4)c(C=O)nc32)ncc1C#N [Example 265, N-(5-cyano-4-isopropoxypyridin-2-yl)-7-formyl-6-(piperidin-4-yl)-3,4-dihydro-1,8-naphthyridine-1(2H)-carboxamide] | 3.5 | 87 | 404 |  | > 10000 | > 10000 | > 10000
CN1CCN(Cc2cc3c(nc2C=O)N(C(=O)Nc2cc(NC45CC(C4)C5)c(C#N)cn2)CCC3)C(=O)C1 [Example 237, N-(4-(bicyclo[1.1.1]pentan-1-ylamino)-5-cyanopyridin-2-yl)-7-formyl-6-((4-methyl-2-oxopiperazin-1-yl)methyl)-3,4-dihydro-1,8-naphthyridine-1(2H)-carboxamide] | 1.9 | 19 | 18 |  | > 10000 | > 10000 | > 10000

Reference: patent publication US9266883B2, “Ring-fused bicyclic pyridyl derivatives as FGFR4 inhibitors” (Novartis AG, priority 2013, dated 2016)
